Read-outs that look alike come from different tables or passages of the source.
How the values were obtained:
[1] = test system: AMP-evolved E. coli lines; test: Cross-resistance / collateral sensitivity: relative MIC change of 38 laboratory-evolved AMP-resistant lines vs parental strain; type: cell-based, Escherichia coli; details: AMP-adapted line PR39_10; measured here
Description: Here, we extended this dataset by measuring susceptibility changes of the same evolved lines to four additional AMPs using identical protocols to represent AMPs from all four clusters (Supplementary Fig. 15a, see also Methods). Overall, the resulting dataset of susceptibility profiles provides a comprehensive map of cross-resistance and collateral sensitivity between AMPs representing various modes of action.
To characterize the cross-resistance of the 38 E. coli lineages we obtained relative MIC changes that are, the MIC values of the evolved lines compared to these of the parental strain, from two data sources. First, we used already measured relative MIC changes from Spohn et al. Supplementary data 4[20]. […] Second, we extended this dataset by measuring the relative MIC changes of the same evolved lines to four additional AMPs using identical protocol. […] In this way, AMPs from each cluster were represented in the dataset.
Supplementary Figure 15. […] Relative change in MIC was determined for each evolved line by comparing its MIC to the ancestral cell line (control). […] CAP18-adaped lines were not included in the analysis because CAP18 is known as a membrane-targeting AMP in the literature. c, Cross-resistance interactions are enriched between membrane-targeting AMPs that are in the same chemical-genetic clusters (i.e. AMP pairs within C1 and within C2 clusters) (Significant difference: ** P = 0.0082 from two-sided Fisher’s exact test, n = 61 and 62 for within cluster and between clusters, respectively). […] Source data are provided as a Source Data file.

bacterial membrane = details: literature mining; ref superscript numbers in the cell, listed in Supplementary Data 7 sheet References; cited from earlier work
Description: Supplement 41467_2019_13618_MOESM10_ESM.xlsx, sheet "AMP details" | column: Pore formation

[2] = test system: AMP-evolved E. coli lines; details: ref Spohn et al 2019, cited from earlier work
Description: Supplement 41467_2019_13618_MOESM13_ESM.xlsx, sheet "Figure 6 and S15" | column: A comprehensive dataset of antimicrobial susceptibility of AMP-adapted lines to antimicrobial peptides (AMPs).

E. coli BW25113 ΔmlaD = test: MIC, serial broth dilution, mlaD knockout strain vs wild type; type: cell-based, Escherichia coli; details: mlaD deletion strain vs control E. coli BW25113; average of 3 replicates

For “ILPWKWPWWPWRR [IND, Indolicidin, antimicrobial peptide from bovine neutrophils; cluster C3]”, the “Relative change in MIC (MIC of the AMP-adpated line / MIC of the ancestral strain)” value [1] is given as 1.3, the “Pore formation (whether AMP makes pores in the bacterial membrane)” value (bacterial membrane) is given as “Yes39” and the “Relative change in MIC (MIC of the AMP-adpated line / MIC of the ancestral strain)” value ([2]; AMP-adapted line BAC5_3) is given as 1.2. For the same sequence, the “Relative change in MIC (MIC of the AMP-adpated line / MIC of the ancestral strain)” value ([2]; AMP-adapted line BAC5_5) was 0.8, the “Relative change in MIC (MIC of the AMP-adpated line / MIC of the ancestral strain)” value ([2]; AMP-adapted line BAC5_7) was 0.9 and the “Relative change in MIC (MIC of the AMP-adpated line / MIC of the ancestral strain)” value ([2]; AMP-adapted line BAC5_10) was 1. For the same sequence, the “Relative change in MIC (MIC of the AMP-adpated line / MIC of the ancestral strain)” value ([2]; AMP-adapted line CAP18_2) was 1, the “Relative change in MIC (MIC of the AMP-adpated line / MIC of the ancestral strain)” value ([2]; AMP-adapted line CAP18_5) was 0.6 and the “Relative change in MIC (MIC of the AMP-adpated line / MIC of the ancestral strain)” value ([2]; AMP-adapted line CAP18_6) was 0.6. The “Relative change in MIC (MIC of the AMP-adpated line / MIC of the ancestral strain)” value ([2]; AMP-adapted line CAP18_8) was 1, the “Relative change in MIC (MIC of the AMP-adpated line / MIC of the ancestral strain)” value ([2]; AMP-adapted line CAP18_10) was 0.8 and the “Relative change in MIC (MIC of the AMP-adpated line / MIC of the ancestral strain)” value ([2]; AMP-adapted line HBD3_3) was 1.3. For the same sequence, the “Relative change in MIC (MIC of the AMP-adpated line / MIC of the ancestral strain)” value ([2]; AMP-adapted line HBD3_6) was 1, the “Relative change in MIC (MIC of the AMP-adpated line / MIC of the ancestral strain)” value ([2]; AMP-adapted line HBD3_8) was 0.8 and the “Relative change in MIC (MIC of the AMP-adpated line / MIC of the ancestral strain)” value ([2]; AMP-adapted line HBD3_10) was 1.2. For the same sequence, the “Relative change in MIC (MIC of the AMP-adpated line / MIC of the ancestral strain)” value ([2]; AMP-adapted line LL37_1) was 0.8, the “Relative change in MIC (MIC of the AMP-adpated line / MIC of the ancestral strain)” value ([2]; AMP-adapted line LL37_3) was 0.8 and the “Relative change in MIC (MIC of the AMP-adpated line / MIC of the ancestral strain)” value ([2]; AMP-adapted line LL37_6) was 0.6. The “Relative change in MIC (MIC of the AMP-adpated line / MIC of the ancestral strain)” value ([2]; AMP-adapted line LL37_7) was 1, the “Relative change in MIC (MIC of the AMP-adpated line / MIC of the ancestral strain)” value ([2]; AMP-adapted line LL37_10) was 0.8 and the “Relative change in MIC (MIC of the AMP-adpated line / MIC of the ancestral strain)” value ([2]; AMP-adapted line PEX_1) was 1. The “Relative change in MIC (MIC of the AMP-adpated line / MIC of the ancestral strain)” value ([2]; AMP-adapted line PEX_4) was 1.4, the “Relative change in MIC (MIC of the AMP-adpated line / MIC of the ancestral strain)” value ([2]; AMP-adapted line PEX_5) was 1 and the “Relative change in MIC (MIC of the AMP-adpated line / MIC of the ancestral strain)” value ([2]; AMP-adapted line PEX_6) was 1. For the same sequence, the “Relative change in MIC (MIC of the AMP-adpated line / MIC of the ancestral strain)” value ([2]; AMP-adapted line PEX_7) was 1.2, the “Relative change in MIC (MIC of the AMP-adpated line / MIC of the ancestral strain)” value ([2]; AMP-adapted line PR39_1) was 1.1 and the “Relative change in MIC (MIC of the AMP-adpated line / MIC of the ancestral strain)” value ([2]; AMP-adapted line PR39_2) was 1. For the same sequence, the “Relative change in MIC (MIC of the AMP-adpated line / MIC of the ancestral strain)” value ([2]; AMP-adapted line PR39_5) was 1.3, the “Relative change in MIC (MIC of the AMP-adpated line / MIC of the ancestral strain)” value ([2]; AMP-adapted line PR39_7) was 0.9 and the “Relative change in MIC (MIC of the AMP-adpated line / MIC of the ancestral strain)” value ([2]; AMP-adapted line PROA_2) was 1.1. For the same sequence, the “Relative change in MIC (MIC of the AMP-adpated line / MIC of the ancestral strain)” value ([2]; AMP-adapted line PROA_3) was 0.8, the “Relative change in MIC (MIC of the AMP-adpated line / MIC of the ancestral strain)” value ([2]; AMP-adapted line PROA_7) was 0.8 and the “Relative change in MIC (MIC of the AMP-adpated line / MIC of the ancestral strain)” value ([2]; AMP-adapted line PROA_8) was 1.1. For the same sequence, the “Relative change in MIC (MIC of the AMP-adpated line / MIC of the ancestral strain)” value ([2]; AMP-adapted line PROA_9) was 1, the “Relative change in MIC (MIC of the AMP-adpated line / MIC of the ancestral strain)” value ([2]; AMP-adapted line PXB_2) was 2.1 and the “Relative change in MIC (MIC of the AMP-adpated line / MIC of the ancestral strain)” value ([2]; AMP-adapted line PXB_5) was 3. For the same sequence, the “Relative change in MIC (MIC of the AMP-adpated line / MIC of the ancestral strain)” value ([2]; AMP-adapted line PXB_6) was 3, the “Relative change in MIC (MIC of the AMP-adpated line / MIC of the ancestral strain)” value ([2]; AMP-adapted line PXB_8) was 2.7 and the “Relative change in MIC (MIC of the AMP-adpated line / MIC of the ancestral strain)” value ([2]; AMP-adapted line PXB_10) was 1.6. For the same sequence, the “Average relative change in MIC” value (E. coli BW25113 ΔmlaD) was 0.71.

Source: article PMC6915728 (Nature Communications, 2019)
